In patent US11654119B2, “Bioavailable curcumin nanoparticles and methods of making” (NUtech Ventures, priority 2018, dated 2023):

Experiments:
[1] = Plasma CUR concentration over time after administration (bioavailability in rats); type: in vivo; details: rat, 0-90 minutes after administration, read-out: maximum concentration of CUR in the plasma (Cmax)
Text: FIG. 12 depicts the bioavailability of curcumin (CUR) impregnated in the nanoporous starch aerogels in rats as analyzed in Example 2.
The plasma CUR concentration was monitored over time after administration.

[2] = Simulated gastrointestinal digestion (oral, gastric, intestinal); bioaccessible fraction; type: in vitro ADME; details: after simulated digestion
Experimental: Gastrointestinal digestion of the samples was simulated adopting the method described by Minekus et al., 2014, Food & Function, 5(6), 1113-1124. Gastrointestinal digestion consisted of a sequential oral, gastric and intestinal digestion. Simulated salivary fluid (SSF), simulated gastric fluid (SGF) and simulated intestinal fluid (SIF) were prepared using a method reported previously (Minekus et al., 2014). […] The experiments were performed in 50 mL Erlenmeyer flasks. All digestion experiments were carried out in triplicate.
First, the sample (0.25 g) and SSF electrolyte stock solution (3.5 mL) were added into the flask. Then, 0.5 mL of α-amylase solution (750 U/mL) was included to have a final mixture with 75 U/mL. Subsequently, 25 μL of 0.3 M CaCl2 and 0.975 mL of deionized water were added. Finally, pH of the mixture was adjusted to pH 7.0 and the mixture was agitated in a shaking water bath (Precision SWB 27, Thermo Fisher Scientific, NH, USA) for 30 sec at 37° C. with a mixing rate of 150 rpm (Mennah-Govela & Bornhorst, 2016; Minekus et al., 2014).
After the oral digestion, oral bolus (5 mL) was mixed with SGF electrolyte stock solution (3.25 mL, pH 3.0) and the pH was adjusted to 3.0 using 1 M HCl (75 μL). […] The pH of the mixture was monitored and kept at pH 3.0 using 1 M HCl. […]

[3] = 10 MPa and 40° C.; cited from earlier work
[4] = Solubility of curcumin in ethanol; type: physicochemical
Experimental: Impregnation of curcumin was conducted during the solvent exchange step. Excess curcumin was mixed with ethanol at room temperature (21° C.) and the undissolved curcumin was removed by filtration through a 0.45 μm pore-size filter. […] Afterwards, curcumin impregnated alcogels were dried using the same SC-CO2 drying conditions. Moreover, curcumin impregnation was investigated at 60° C., where higher solubility of curcumin in ethanol was obtained. Curcumin impregnated NSAs were called CUR-NSA-60° C. or CUR-NSA-RT depending on the impregnation temperature of 60° C. or room temperature (RT), respectively. Curcumin impregnated NSAs were stored in the freezer at −18° C. until characterized.
Impregnation capacity of the Curcumin-NSA-RT, where impregnation was performed at room temperature (21° C.), was 14.4 mg curcumin/g NSA (FIG. 5). When temperature of the impregnation increased to 60° C. […] Impregnation capacity was basically based on the solubility of curcumin in ethanol. […] The reason for a drastic increase in the impregnation capacity at 60° C. was the crystallization of curcumin in the saturated ethanolic curcumin solution on the surface of the NSA due to temperature drop to 40° C. during SC-CO2 drying. Crystallization from ethanol before the supercritical conditions reached led to the formation of long curcumin crystals (data not shown) which impacted the bioaccessibility of curcumin after simulated digestion (FIG. 10).

[5] = in humans; cited from earlier work

Cmax [1]: 500 nM | concentration of curcumin in the bioaccessible fraction [2]: 3000 ng/mL | increase in the solubility of curcumin in ethanol ([4]; 21 to 60° C.): 3.9 fold | solubility of curcumin in ethanol ([4]; 21° C.): 4.4±0.2 mg curcumin/mL ethanol | solubility of curcumin in ethanol ([4]; 60° C.): 17.2±0.3 mg curcumin/mL ethanol
Structure (SMILES): COc1cc(/C=C/C(=O)CC(=O)/C=C/c2ccc(O)c(OC)c2)ccc1O [crude curcumin, Curcumin (diferuloylmethane)]
solubility of curcumin in SC-CO2 [3]: ~0.4 ng/mL | bioavailability [5]: ~1%
